Data from PubChem BioAssay AID248 (DTP/NCI, 2004).
“And” between values parts separate entries of the source, which are not always exact repeats. Equal entries are not always repeated. Inconclusive results and toxic doses are left out. Cut-off read from the data, not from the text of the source: active = T/C of 150% or more; inactive = T/C below 125%.

Tested on: L1210 leukemia ip in BDF1 mice, survival T/C
Test: NCI In Vivo Anticancer Drug Screen. Data for tumor model L1210 Leukemia (intraperitoneal) in B6D2F1 (BDF1) mice
Settings: endpoint: mean survival time, higher = longer survival
Procedure, shortened: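 Each compound was tested against a transplantable tumor grown in mice. The endpoint was survival, with treated animals benchmarked against vehicle controls as a simple ratio.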

[1] = dose: 100.0 mg/kg/injection, schedule: Q01DX009 (ip), vehicle: saline
[2] = dose: 200.0 mg/kg/injection, schedule: Q01DX009 (ip), vehicle: saline
[3] = dose: 400.0 mg/kg/injection, schedule: Q01DX009 (ip), vehicle: saline
[4] = dose: 100.0 mg/kg/injection, schedule: Q01DX001 (ip), vehicle: Klucel (hydroxypropylcellulose) (HPC)
[5] = dose: 200.0 mg/kg/injection, schedule: Q01DX001 (ip), vehicle: Klucel (hydroxypropylcellulose) (HPC)
[6] = dose: 100.0 mg/kg/injection, schedule: Q04DX002 (ip), vehicle: saline with Tween-80
[7] = dose: 200.0 mg/kg/injection, schedule: Q04DX002 (ip), vehicle: saline with Tween-80
[8] = dose: 400.0 mg/kg/injection, schedule: Q04DX002 (ip), vehicle: saline with Tween-80
[9] = dose: 100.0 mg/kg/injection, schedule: Q01DX009 (ip), vehicle: saline with Tween-80
[10] = dose: 200.0 mg/kg/injection, schedule: Q01DX009 (ip), vehicle: saline with Tween-80
[11] = dose: 400.0 mg/kg/injection, schedule: Q01DX009 (ip), vehicle: saline with Tween-80
[12] = dose: 100.0 mg/kg/injection, schedule: Q04DX003 (ip), vehicle: Klucel (hydroxypropylcellulose) (HPC)
[13] = dose: 200.0 mg/kg/injection, schedule: Q04DX003 (ip), vehicle: Klucel (hydroxypropylcellulose) (HPC)
[14] = dose: 400.0 mg/kg/injection, schedule: Q04DX003 (ip), vehicle: Klucel (hydroxypropylcellulose) (HPC)
[15] = dose: 100.0 mg/kg/injection, schedule: Q04DX003 (ip), vehicle: saline with Tween-80
[16] = dose: 200.0 mg/kg/injection, schedule: Q04DX003 (ip), vehicle: saline with Tween-80
[17] = dose: 400.0 mg/kg/injection, schedule: Q04DX003 (ip), vehicle: saline with Tween-80
[18] = dose: 25.0 mg/kg/injection, schedule: Q01DX009 (ip), vehicle: saline with Tween-80
[19] = dose: 50.0 mg/kg/injection, schedule: Q01DX009 (ip), vehicle: saline with Tween-80
[20] = dose: 100.0 mg/kg/injection, schedule: Q01DX009 (ip), vehicle: Klucel (hydroxypropylcellulose) (HPC)
[21] = dose: 200.0 mg/kg/injection, schedule: Q01DX009 (ip), vehicle: Klucel (hydroxypropylcellulose) (HPC)
[22] = dose: 400.0 mg/kg/injection, schedule: Q01DX009 (ip), vehicle: Klucel (hydroxypropylcellulose) (HPC)
[23] = dose: 100.0 mg/kg/injection, schedule: Q01DX001 (ip), vehicle: saline with Tween-80
[24] = dose: 200.0 mg/kg/injection, schedule: Q01DX001 (ip), vehicle: saline with Tween-80
[25] = dose: 100.0 mg/kg/injection, schedule: Q04DX003 (ip), vehicle: saline

Measured: T/C

O=S(=O)(O)c1ccc(-c2nc(-c3ccccc3)c(-c3ccccc3)[nH]2)cc1
inactive: [1] 102 % of control | [2] 102 % of control | [3] 101 % of control

CC(CC(=O)O)[Se][Se]C(C)CC(=O)O (centres undefined)
inactive: [4] 108 % of control | [5] 102 % of control

C1CCC2(CC1)CCCO2
inactive: dose: 50.0 mg/kg/injection, schedule: Q04DX002 (ip), vehicle: saline with Tween-80 87 % of control | [6] 98 % of control | [7] 106 % of control | [8] 102 % of control

Cc1ccc(Cl)cc1NC(=O)Oc1ccccc1C(=O)OCc1ccccc1
inactive: [9] 97 % of control | [10] 100 % of control | [11] 94 % of control

CC(C)C(=O)Nc1ccc(Cl)c(Cl)c1
inactive: dose: 222.0 mg/kg/injection, schedule: Q01DX Z (ip), vehicle: methylcellulose (MC) 111 % of control | dose: 333.0 mg/kg/injection, schedule: Q01DX Z (ip), vehicle: methylcellulose (MC) 98 % of control | dose: 500.0 mg/kg/injection, schedule: Q01DX Z (ip), vehicle: methylcellulose (MC) 102 % of control

CC1CC(O)=C(c2ccccc2)P1(=O)Cc1ccccc1 (centres undefined)
inactive: [12] 95 % of control | [13] 95 % of control | [14] 89 % of control

CCOC(=O)C(O)(NC(=O)N/N=C/c1ccccc1)C(=O)OCC
inactive: [9] 101 % of control | [15] 106 % of control | [10] 92 % of control | [16] 104 % of control | [11] 93 % of control | [17] 101 % of control

O=C(NC(NC(=O)c1ccc(Cl)cc1)C(Cl)(Cl)Cl)c1ccc(Cl)cc1
inactive: [18] 100 % of control | [19] 93 % of control | [9] 92 % of control | [15] 92 % of control

CC(C)CC1NC(=O)N(C)C1=O (centres undefined)
inactive: dose: 75.0 mg/kg/injection, schedule: Q01DX001 (ip), vehicle: carboxymethylcellulose (CMC) 95 % of control | dose: 150.0 mg/kg/injection, schedule: Q01DX001 (ip), vehicle: carboxymethylcellulose (CMC) 100 % of control | dose: 300.0 mg/kg/injection, schedule: Q01DX001 (ip), vehicle: carboxymethylcellulose (CMC) 100 % of control

Clc1ccc(SSc2ccc(Cl)cc2)cc1
inactive: [15] 102 % of control | [16] 94 % of control | [17] 98 % of control

c1ccc(Cc2ccncc2)cc1
inactive: [9] 101 % of control | [10] 106 % of control

CCN(CC)CCCNC(c1ccc(OC)c(OC)c1)C(Cl)(Cl)Cl (centres undefined)
inactive: dose: 75.0 mg/kg/injection, schedule: Q01DX001 (ip), vehicle: saline 98 % of control | dose: 150.0 mg/kg/injection, schedule: Q01DX001 (ip), vehicle: saline 91 % of control

CC(C)=CCO
inactive: [1] 96 % of control | [2] 93 % of control | [3] 88 % of control

CSc1ccc(NC(=O)COc2ccccc2)cc1
inactive: [20] 102 % of control | [21] 98 % of control | [22] 98 % of control

Cc1ccc(O)c(C(=O)C(C)CCCC(C)C)c1 (centres undefined)
inactive: dose: 75.0 mg/kg/injection, schedule: Q01DX009 (ip), vehicle: Klucel (hydroxypropylcellulose) (HPC) 89 % of control | dose: 150.0 mg/kg/injection, schedule: Q01DX009 (ip), vehicle: Klucel (hydroxypropylcellulose) (HPC) 94 % of control | dose: 300.0 mg/kg/injection, schedule: Q01DX009 (ip), vehicle: Klucel (hydroxypropylcellulose) (HPC) 100 % of control

Cc1ccc(NC(=S)NC(=O)/C=C/c2ccccc2)cc1Cl
inactive: [18] 94 % of control | [19] 96 % of control and 86 % of control | [23] 87 % of control | [6] 97 % of control | [24] 87 % of control | [7] 87 % of control and 89 % of control | [8] 87 % of control and 89 % of control

O=[N+]([O-])c1cc(Cl)ccc1S(=O)(=O)/C=C/c1ccccc1
inactive: dose: 100.0 mg/kg/injection, schedule: Q01DX001 (ip), vehicle: saline 104 % of control | [1] 94 % of control | dose: 200.0 mg/kg/injection, schedule: Q01DX001 (ip), vehicle: saline 104 % of control | [2] 96 % of control | dose: 400.0 mg/kg/injection, schedule: Q01DX001 (ip), vehicle: saline 100 % of control | [3] 91 % of control

c1coc(NC2CCCCC2)n1
inactive: [9] 100 % of control | [10] 92 % of control | [11] 86 % of control

CCCCCCCCCCCCCCCCC[CH2][Sn]([Cl])([CH2]CCCCCCCCCCCCCCCCC)[CH2]CCCCCCCCCCCCCCCCC
inactive: dose: 100.0 mg/kg/injection, schedule: Q04DX002 (ip), vehicle: Klucel (hydroxypropylcellulose) (HPC) 92 % of control | dose: 200.0 mg/kg/injection, schedule: Q04DX002 (ip), vehicle: Klucel (hydroxypropylcellulose) (HPC) 100 % of control | dose: 400.0 mg/kg/injection, schedule: Q04DX002 (ip), vehicle: Klucel (hydroxypropylcellulose) (HPC) 96 % of control

COc1cc2ccncc2cc1Oc1ccc(C)cc1
inactive: dose: 50.0 mg/kg/injection, schedule: Q01DX001 (ip), vehicle: other 97 % of control | dose: 100.0 mg/kg/injection, schedule: Q01DX001 (ip), vehicle: other 104 % of control | dose: 200.0 mg/kg/injection, schedule: Q01DX001 (ip), vehicle: other 97 % of control

Cc1ccc2ccccc2c1CC(=O)O
inactive: [20] 101 % of control | [12] 112 % of control | [21] 95 % of control | [13] 96 % of control | [22] 117 % of control | [14] 96 % of control

OCCNc1ncnc2ccccc12
inactive: [15] 98 % of control | [16] 104 % of control | [17] 104 % of control

Cc1ccc(S(=O)(=O)N/N=c2\cc(C)c3ccccc3n2C)cc1
inactive: dose: 100.0 mg/kg/injection, schedule: Q04DX003 (ip), vehicle: gum acacia 95 % of control | dose: 200.0 mg/kg/injection, schedule: Q04DX003 (ip), vehicle: gum acacia 94 % of control | dose: 400.0 mg/kg/injection, schedule: Q04DX003 (ip), vehicle: gum acacia 93 % of control

CC[N+](C)(CC)CCNC(=O)C(c1ccccc1)c1ccccc1
inactive: [25] 100 % of control

Nc1ccc(Cl)cc1-c1ccccc1
inactive: dose: 55.0 mg/kg/injection, schedule: Q01DX Z (ip), vehicle: saline 105 % of control | dose: 125.0 mg/kg/injection, schedule: Q01DX Z (ip), vehicle: saline 104 % of control

O=c1c2ccccc2sc2c1ccc1ccccc12
inactive: [12] 100 % of control | [13] 103 % of control | [14] 96 % of control

CCC(O)CN (centres undefined)
inactive: [25] 96 % of control and 107 % of control | dose: 200.0 mg/kg/injection, schedule: Q04DX003 (ip), vehicle: saline 96 % of control | dose: 400.0 mg/kg/injection, schedule: Q04DX003 (ip), vehicle: saline 95 % of control

CC(=O)OCC1OC(OC(C)=O)C(O)C(OC(C)=O)C1OC(C)=O (centres undefined)
inactive: [4] 113 % of control | [5] 102 % of control | dose: 400.0 mg/kg/injection, schedule: Q01DX001 (ip), vehicle: Klucel (hydroxypropylcellulose) (HPC) 117 % of control

COC(=O)c1ccc(O)cc1
inactive: dose: 100.0 mg/kg/injection, schedule: Q04DX002 (ip), vehicle: saline 96 % of control | dose: 200.0 mg/kg/injection, schedule: Q04DX002 (ip), vehicle: saline 100 % of control | dose: 400.0 mg/kg/injection, schedule: Q04DX002 (ip), vehicle: saline 100 % of control

c1ccc(C2=Nc3ccccc3-c3ccccc3N2)cc1
inactive: [23] 100 % of control | [24] 103 % of control | dose: 400.0 mg/kg/injection, schedule: Q01DX001 (ip), vehicle: saline with Tween-80 106 % of control

CCOc1nc(N)nc2c1-c1ccc(OC)cc1CC2
inactive: [6] 91 % of control | [7] 102 % of control | [8] 87 % of control

COc1ccc(C=Nc2ccc(OC(C)=O)cc2)cc1
inactive: dose: 176.0 mg/kg/injection, schedule: Q01DX009 (ip), vehicle: other 105 % of control | dose: 264.0 mg/kg/injection, schedule: Q01DX009 (ip), vehicle: other 120 % of control
